Legend:
VEGF mRNA = test: Real-time PCR of retinal mRNA after ischaemia/reperfusion: VEGF; assay type: in vivo, Wistar rats; conditions: 100 μM SAC pre-treatment, 24 hours after I/R; control 0.36±0.07, vehicle 1.10±0.20; n=6
Protocol: The rats (200-250 g) were anaesthetized and placed in a stereotaxic frame. The anterior chamber of one eye was cannulated with a 30-gauge needle connected to a 0.9% saline reservoir; this caused a high IOP (HIOP) of 120 mmHg for 60 minutes. Eye fundus whitening and a low ERG response confirmed induction of an ischaemic insult. A sham procedure was carried out on the controls. Drug administration involved the pre-administration (15-minute before 60-minute HIOP induced retinal ischaemia) of SAC (25, 50, 100 μM) or vehicle (saline; control). The ischemic eye of each test rat was treated with or without a single intravitreous injection of 5 μl of the test compound. […] The levels of Thy-1, HIF-1 Alpha, VEGF and MMP-9 mRNAs present in the retinas were determined using a real-time PCR technique. […] Relative quantification (a comparative method) was performed using the house keeping gene Beta-actin as the internal standard. This process allows the normalized quantification of the mRNA target (Ct) and takes into account the differences in the amount of total RNA added to each reaction (ΔCt). The relative HIF-1 Alpha/VEGF/MMP-9 expression changes were calculated as fold changes relative to the control with respect to the calibrator (ΔΔCt), which was represented by the control retina. […] The data obtained for each treatment were pooled, and a total percentage change relative to the control was calculated. […]

[1] = test system: non-ischaemic (normal) eye; test: Flash ERG b-wave of the non-ischaemic (normal) eye given SAC (adverse effects); assay type: in vivo, Wistar rats; conditions: 100 μM SAC, n=3
Protocol: Drug administration involved the pre-administration (15-minute before 60-minute HIOP induced retinal ischaemia) of SAC (25, 50, 100 μM) or vehicle (saline; control). The ischemic eye of each test rat was treated with or without a single intravitreous injection of 5 μl of the test compound. In addition, SAC (100 μM) was administered to the non-ischaemic eye (normal) to see whether SAC has any adverse effects. In both cases, the paired normal eye was untreated.
Flash ERG recordings were performed on all rats before retinal ischaemia (day 0), as well as at 1, 3, 5, and 7 days after ischaemia and treatment with or without the defined chemicals. The animals were dark adapted and anaesthetized to do this. A strobe was placed 2 cm in front of the animal to provide a stimulus of 0.5 Hz. Fifteen consecutive responses were recorded at two-second intervals and at 10 kHz; the responses were amplified and averaged using an amplifier P511/regulated power supply RPS 107/stimulator PS22 (Grass-Telefactor; Astro-Med Inc., West Warwick, R.I., USA). For comparative purposes, the b-wave ratio, namely the b-wave amplitude of the ischaemic/sham-operation eye or the untreated/SAC-treated non-ischaemic (normal) eye as compared with that of the contralateral normal eye, was calculated.

C=CCSC[C@H](N)C(=O)O [SAC, S-allyl L-cysteine]
VEGF mRNA ratio in the retina (VEGF mRNA): 0.50±0.06
b-wave amplitude (ratio) of the non-ischemic (normal) eye vs. the fellow normal eye ([1]; day 0): 1.11±0.05
b-wave amplitude (ratio) of the non-ischemic (normal) eye vs. the fellow normal eye ([1]; day 1): 1.05±0.06
b-wave amplitude (ratio) of the non-ischemic (normal) eye vs. the fellow normal eye ([1]; day 5): 1.06±0.12
b-wave amplitude (ratio) of the non-ischemic (normal) eye vs. the fellow normal eye ([1]; day 7): 0.91±0.09
adverse effect on the b-wave amplitude (ratio) of the non-ischemic (normal) eye ([1]; days 0 to 7): no significant adverse effect
